The text below walks through data of patent EP2805714B1, “STABLE PHARMACEUTICAL COMPOSITION COMPRISING AMORPHOUS ROSUVASTATIN CALCIUM” (Antibiotice S.A., priority 2013, dated 2014).

A short description of the series: Stability test according to ICH guidelines, related substances by in-house HPLC method. Type of series: physicochemical. The note with it: rosuvastatin calcium amorphous active substance (raw material). As to the method: We performed stability tests on these tablet compositions, according to the method described in ICH guidelines. The tablets were packed in opaque OPA/Al/PVC-Al blisters with very low oxygen and humidity transmission rates. Using a HPLC in house method, we measured the level of lactone and total impurities formed after a period of storage of 12 months at 25°C/60%RH (normal conditions, A1) and of 6 months at 40°C/[…]. The results were compared with those obtained for the tablets at the moment of release (TO) and those obtained for the rosuvastatin calcium amorphous active substance (Table 2). Table 2. Related substances values for the tested formulations

Take `CC(C)c1nc(N(C)S(C)(=O)=O)nc(-c2ccc(F)cc2)c1/C=C/[C@@H](O)C[C@@H](O)CC(=O)[O-].CC(C)c1nc(N(C)S(C)(=O)=O)nc(-c2ccc(F)cc2)c1/C=C/[C@@H](O)C[C@@H](O)CC(=O)[O-].[Ca+2]` [RC amorphous, bis [(E)-7-[4-(4-fluorophenyl)-6-isopropyl-2-[methyl(methylsulfonyl)amino]pyrimidin-5-yl]-(3R,5S)-dihydroxyhept-6-enoic acid] calcium salt]: the “Lactone, %” value amounted to 0.010% and the “Total impurities, %” value was determined as 0.150%.
